In patent publication US6716834B2, “Thiochromane derivatives and their use as thrombin inhibitors” (AstraZeneca AB, priority 2000, dated 2004):

Assays:
Human thrombin = biological target: T1, Human thrombin (Homo sapiens, UniProt P00734); assay: Test A: Determination of Thrombin Clotting Time (TT); format: biochemical; conditions: concentration of inhibitor that doubles the thrombin clotting time in plasma
T1 construct: purchased Sigma Chem. Co or Hematologic Technologies T 6769
Procedure: Determination of Thrombin Clotting Time (TT)
The inhibitor solution (25 ? L) is incubated with plasma (25 ? L) for three minutes. Human thrombin (T 6769; Sigma Chem. Co or Hematologic Technologies) in buffer solution, pH 7.4 (25 ? L, 4.0 NIH units/mL), is then added and the clotting time measured in an automatic device (KC 10; Amelung).
The thrombin clotting time (TT) is expressed as absolute values (seconds) as well as the ratio of TT without inhibitor (TT0) to TT with inhibitor (TTi). The latter ratios (range 1-0) are plotted against the concentration of inhibitor (log transformed) and fitted to sigmoidal dose-response curves according to the equation
where: a=maximum range, i.e. 1; s=slope of the dose-response curve; and IC50=the concentration of inhibitor that doubles the clotting time. The calculations are processed on a PC using the software program GraFit Version 3, setting equation equal to: Start at 0, define end=1 (Erithacus Software, Robin Leatherbarrow, Imperial College of Science, London, UK).

[1] = Test G: Metabolic Activation of Prodrug Compounds in vitro; format: in vitro ADME, human or rat
Procedure: Metabolic Activation of Prodrug Compounds in vitro
Prodrug compounds of formula IA are incubated at 37° C. with liver microsomes or 10 000 g (referring to the centrifuge speed) supernatant fractions (i.e. s9 fraction) prepared from human or rat liver homogenate. The total protein concentration in the incubations are 1 or 3 mg/mL dissolved in 0.05 mol/L TRIS buffer (pH 7.4), and with the cofactors NADH (2.5 mmol/L) and NADPH (0. 8 mmol/L) present. The total volume of the incubate is 1.2 mL. The initial prodrug concentrations are 5 or 10 ? mol/L. Samples are collected from the incubate at regular is intervals more than 60 minutes after the start of the incubations. Samples (25 ? L) from the incubate are mixed with an equal volume of human or rat plasma and an appropriate amount of thrombin, and the clotting time (i.e. thrombin time) is measured on a coagulometer (KC 10; Amelung). The amount of “active” thrombin inhibitor formed is estimated by the use of standard curves relating the thrombin time in pooled citrated human or rat plasma to known concentrations of the corresponding “active thrombin inhibitor”.
The amount of “active” thrombin inhibitor is alternatively, or in addition to the above-mentioned method, estimated by the use of LC-MS.

[2] = Test E: Determination of Thrombin Time ex vivo (bioavailability of active inhibitor after prodrug administration); format: in vivo; conditions: rat
Source text: Determination of Thrombin Time ex vivo
The inhibition of thrombin after oral or parenteral administration of the compounds of formula I, dissolved in ethanol:Solutol3:water (5:5:90), is examined in conscious rats which, one or two days prior to the experiment, are equipped with a catheter for blood sampling from the carotid artery. On the experimental day blood samples are withdrawn at fixed times after the administration of the compound into plastic tubes containing 1 part sodium citrate solution (0.13 mol per L) and 9 parts of blood. The tubes are centrifuged to obtain platelet poor plasma. The plasma is used for determination of thrombin time or ecarin clotting time (ECT) as described below.
The citrated rat plasma, 100 ? L, is diluted with a saline solution, 0.9%, 100 ? […] The clotting time is measured in an automatic device (KC 10, Amelung, Germany). […]
Based on the estimated plasma concentrations of the active thrombin inhibitor (which assumes that thrombin time or ECT prolongation is caused by the aforementioned compound) in the rat, the area under the curve after oral and/or parenteral administration of the corresponding prodrug compound of formula I is calculated (AUCpd) using the trapezoidal rule and extrapolation of data to infinity.
The bioavailability of the active thrombin inhibitor after oral or parenteral administration of the prodrug is calculated as below: […]

Structure (SMILES)	IC50 (Human thrombin)	also measured
COc1cc(Cl)cc2c1[S+]([O-])CCC2(O)C(=O)N1CCC1C(=O)NCc1ccc(C(=N)N)cc1 (single isomer, unassigned) [Example 8, 6-Chloro-4-(R)-hydroxy-8-methoxy-1-(R or S)-oxo-thiochromane-4-yl-C(O)-Aze-PabxTFA]	< 50 nM	–
COc1cc(Cl)cc2c1S(=O)(=O)CC[C@]2(O)C(=O)N1CC[C@H]1C(=O)NCc1ccc(C(=N)N)cc1 [Example 1, (R)-6-Chloro-4-hydroxy-8-methoxy-1,1-dioxothiochromane-4-yl-C(O)-Aze-Pab]	< 50 nM	–
N=C(N)c1ccc(CNC(=O)[C@@H]2CCN2C(=O)[C@@]2(O)CCS(=O)(=O)c3ccc(Cl)cc32)cc1 [Example 3, (R)-6-Chloro-4-hydroxy-1,1-dioxothiochromane-4-yl-C(O)-Aze-Pab]	< 50 nM	–
COc1cc(Cl)cc2c1S(=O)(=O)CC[C@]2(O)C(=O)N1CC[C@H]1C(=O)NCc1ccc(C(N)=NOCc2ccccc2)cc1 [Example 4, (R)-6-Chloro-4-hydroxy-8-methoxy-1,1-dioxothiochromane-4-yl-C(O)-Aze-Pab(OBn)]	–	oral and/or parenteral bioavailability as the corresponding active inhibitor (free amidine) [1]: exhibit oral and/or parenteral bioavailability in the rat as the corresponding active inhibitor (free amidine)
COc1cc(Cl)cc2c1S(=O)(=O)CC[C@]2(O)C(=O)N1CC[C@H]1C(=O)NCc1ccc(C(N)=NC(=O)OC2CCCC2)cc1 [Example 5, (R)-6-Chloro-4-hydroxy-8-methoxy-1,1-dioxothiochromane-4-yl-C(O)-Aze-Pab(C(O)-O-cyclopentyl)]	–	oral and/or parenteral bioavailability as the corresponding active inhibitor (free amidine) [1]: exhibit oral and/or parenteral bioavailability in the rat as the corresponding active inhibitor (free amidine)
CON=C(N)c1ccc(CNC(=O)[C@@H]2CCN2C(=O)[C@@]2(O)CCS(=O)(=O)c3c(Cl)cc(Cl)cc32)cc1 [Example 6, (R)-6,8-Dichloro-4-hydroxy-1,1-dioxothiochromane-4-yl-C(O)-Aze-Pab(OMe)]	–	oral and/or parenteral bioavailability as the corresponding active inhibitor (free amidine) [2]: exhibit oral and/or parenteral bioavailability in the rat as the corresponding active inhibitor (free amidine); oral and/or parenteral bioavailability as the corresponding active inhibitor (free amidine) ([1]; Test G as printed): exhibit oral and/or parenteral bioavailability in the rat as the corresponding active inhibitor (free amidine)
N=C(N)c1ccc(CNC(=O)C2CCN2C(=O)C2(O)CCS(=O)(=O)c3c(OC(F)F)cc(Cl)cc32)cc1 (centres unmarked) [Example 7, 6-Chloro-8-difluoromethoxy-4-hydroxy-1,1-dioxothiochromane-4-yl-C(O)-Aze-Pab]	< 50 nM	–
